Columns and labels:
Type in all cases: cell-based
[1] = system: neural precursor cells (NPCs); assay: Control over growth and differentiation of neural precursor cells on Ara-C coated Si NWs (immunofluorescence)
Procedure: Si NWs were grown on a Si substrate via CVD. Substrates were first prepared by immobilizing Au nanoparticles on a precleaned Si (111) substrate using a thin polyelectrolyte layer as previously described (J. Am. Chem. Soc. 2008, 130, 6252-6258; Nano Lett. 2004, 4, 1987-1990; J. Am. Chem. Soc. 2001, 123, 9769-9779; J. Am. Chem. Soc. 2008, 130, 6252-6258). Si NWs were then synthesized by the vapor transport method using SiCl4 as the precursor for Si NW growth and H2 (10%) in argon as the carrier gas with minor modifications from that which was previously reported (Nano Lett. 2005, 5, 457-460). Briefly, a Si (111) substrate, covered with Au nanoparticles patterned into stripes by flowing a solution of 70 nm Au nanoparticles across poly-l-lysine coated silicon using PDMS microfluidic channels, was placed inside a 1″ diameter quartz tube and loaded at the center of a 12″ horizontal tube furnace (Lindberg/Blue M). After the quartz tube was evacuated and flushed repeatedly with H2 (10%) in argon gas mixture to minimize oxygen contamination, it was charged with H2 (10%) in argon gas up to 760 torr and the pump line was quickly replaced with a line that enabled venting through a bubbler filled with a saturated K2CO3 aqueous solution, meant to trap the byproduct of SiCl4 decomposition, gaseous HCl. […]

[2] = system: HeLa cells; assay: Apoptosis assay (TUNEL / Annexin V) of HeLa cells on inhibitor-coated Si NWs after actinomycin-D and TNF-α; details: Si NWs treated with 100 mM inhibitor; actinomycin-D 1 μg/mL, TNF-α 2 ng/mL; cells on uncoated NWs died
Procedure: The silanized Si NWs (produced via CVD prior to silanization) were treated with 100 mM Ac-DEVD-CHO, an apoptosis inhibitor, in PBS at room temperature for 1 hr, and washed in PBS three times for 2 min each. HeLa cells (5×10^4 cells/mL) in DMEM media were added onto the Si NWs, and cultured in a CO2 incubator at 37° C. overnight. The cell treated Si NWs were then transferred into a fresh DMEM media containing actinomycin-D at the final concentration of 1 μg/mL, and incubated in a CO2 incubator at 37° C. for 30 min, followed by addition of TNF-α at the final concentration of 2 ng/mL. After incubation in CO2 incubator at 37° C. for indicated hours, the cells on the Si NWs were assayed for apoptosis.
Cells were analyzed for apoptosis by the Terminal Deoxynucleotide Transferase dUTP Nick End Labeling (TUNEL) assay or by the Annexin V assay. TUNEL staining was performed using the apoptosis detection kit according to the manufacturer's protocol with minor modifications. […] After blocking, streptavidin-Cy3 at 20 μg/mL and WGA Alexa Fluor 488 at 50 μg/mL were incubated with the Si NWs for 30 min at room temperature, and washed in PBC three times for 5 min each, followed by examination under a fluorescence microscope. […] After incubation for 15 min at room temperature and washes in binding buffer three times for 1 min each, cells were analyzed under a fluorescence microscope.

[3] = system: Mouse embryonic stem cells (mES cells); assay: Si NW delivery into mouse embryonic stem cells; details: delivered by Si NWs
Procedure: Mouse embryonic stem cells (mES cells) were also used in this study. Delivery of molecules (including Cre Recombinase proteins) into mES cells was carried out in a manner similar to that described in Example 3.

Molecule: Nc1ccn([C@@H]2O[C@H](CO)[C@@H](O)[C@@H]2O)c(=O)n1 [Ara-C, Cytarabine]
- proliferation of glial-like cell plated atop Ara-C coated NWs ([1]; Ara-C 1 mg/mL, 5 uL coated on silanized CVD Si NWs, examined on sixth day): survived but did not proliferate
- cell type mixture in regions containing NWs ([1]; Ara-C coated NWs, regions without NWs showed only mitotic cell types, sixth day): neuron heavy

Molecule: Ac-DEVD-CHO
- cell survival after apoptosis induction [2]: survived

B1: Cre Recombinase proteins: Cre Recombinase proteins delivered by Si NWs into mES cells (protein, UniProt P06956 1-343, looked up)
Recombinase cre: MSNLLTVHQNLPALPVDATSDEVRKNLMDMFRDRQAFSEHTWKMLLSVCRSWAAWCKLNNRKWFPAEPEDVRDYLLYLQARGLAVKTIQQHLGQLNMLHRRSGLPRPSDSNAVSLVMRRIRKENVDAGERAKQALAFERTDFDQVRSLMENSDRCQDIRNLAFLGIAYNTLLRIAEIARIRVKDISRTDGGRMLIHIGRTKTLVSTAGVEKALSLGVTKLVERWISVSGVADDPNNYLFCRVRKNGVAAPSATSQLSTRALEGIFEATHRLIYGAKDDSGQRYLAWSGHSARVGAARDMARAGVSIPEIMQAGGWTNVNIVMNYIRNLDSETGAMVRLLEDGD
- EGFP expression in transgenic foxed-eGFP mES cells [3]: expressed EGFP
